# Assays:
# [1] = Cytotoxicity against human DU145 cells incubated for 72 hrs by alamar blue abased assay; assay type: functional; conditions: DU-145, 72 h
# [2] = Cytotoxicity against human MDA-MB-231 cells incubated for 72 hrs by alamar blue abased assay; assay type: functional; conditions: MDA-MB-231, 72 h
# [3] = Cytotoxicity against human HCT116 cells incubated for 72 hrs by alamar blue abased assay; assay type: functional; conditions: HCT-116, 72 h
# [4] = Cytotoxicity against human KB-3-1 cells; assay type: functional, cell-based
# [5] = Cytotoxicity against mouse L929 cells; assay type: functional, cell-based
# [6] = Cytotoxicity against human SW480 cells; assay type: functional, cell-based
# [7] = Cytotoxicity against human T98 cells; assay type: functional, cell-based
Compound,GI50 [1],GI50 [2],GI50 [3],IC50 [4],IC50 [5],IC50 [6],IC50 [7]
CC[C@H](C)[C@H](NC(=O)C1(C)CCCCN1C)C(=O)N(C)[C@H](C[C@@H](OC(C)=O)c1nc(C(=O)N[C@@H](Cc2ccccc2)C[C@H](C)C(=O)O)cs1)C(C)C (some centres undefined),1.2 nM,,,,,,
CC[C@H](C)[C@H](NC(=O)[C@H]1CCCCN1C)C(=O)N(C)[C@H](C[C@@H](O)c1nc(C(=O)N[C@@H](Cc2ccccc2)C[C@H](C)C(=O)O)cs1)C(C)C,363 nM,169 nM,110 nM,,,,
CC[C@H](C)[C@H](NC(=O)[C@H]1COCCN1)C(=O)N(C)[C@H](C[C@@H](OC(C)=O)c1nc(C(=O)N[C@@H](Cc2ccccc2)C[C@H](C)C(=O)O)cs1)C(C)C,2280 nM,> 3330 nM,1380 nM,,,,
CC[C@H](C)[C@H](NC(=O)[C@H]1CCCCN1C)C(=O)N(C)[C@H](C[C@@H](OC(C)=O)c1nc(C(=O)N[C@@H](Cc2ccccc2)C[C@H](C)C(=O)NN)cs1)C(C)C,6.63 nM,5.24 nM,6.09 nM,,,,
CC[C@H](C)[C@H](NC(=O)[C@H]1CC2CCN1CC2)C(=O)N(C)[C@H](C[C@@H](OC(C)=O)c1nc(C(=O)N[C@@H](Cc2ccccc2)C[C@H](C)C(=O)O)cs1)C(C)C,428 nM,196 nM,214 nM,,,,
CC[C@H](C)[C@H](NC(=O)[C@H]1CSCN1C)C(=O)N(C)[C@H](C[C@@H](OC(C)=O)c1nc(C(=O)N[C@@H](Cc2ccccc2)C[C@H](C)C(=O)O)cs1)C(C)C,1120 nM,816 nM,352 nM,,,,
CC[C@H](C)[C@H](NC(=O)[C@H]1CCCCN1C)C(=O)N(C)[C@H](C[C@@H](OC(C)=O)c1nc(C(=O)N[C@@H](Cc2ccccc2)C[C@H](C)C(=O)O)cs1)C(C)C,0.71 nM,1.14 nM,0.62 nM,0.19 nM,0.34 nM,0.02 nM,1.6 nM
CC[C@H](C)[C@H](NC(=O)[C@H]1CCCCN1C)C(=O)N(C)[C@H](C[C@@H](OC(C)=O)c1nc(C(=O)N[C@H](CN)Cc2ccccc2)cs1)C(C)C,2.7 nM,9 nM,5.9 nM,,,,
CC[C@H](C)[C@H](NC(=O)[C@@H](C(C)C)N(C)CC)C(=O)N(C)[C@H](C[C@@H](OC(C)=O)c1nc(C(=O)N[C@@H](Cc2ccccc2)C[C@H](C)C(=O)O)cs1)C(C)C,2940 nM,3020 nM,1640 nM,,,,
CC[C@H](C)[C@H](NC(=O)[C@H]1CSCCN1C)C(=O)N(C)[C@H](C[C@@H](OC(C)=O)c1nc(C(=O)N[C@@H](Cc2ccccc2)C[C@H](C)C(=O)O)cs1)C(C)C,166 nM,226 nM,69.3 nM,,,,
CC[C@H](C)[C@H](NC(=O)[C@H]1C[C@@H](C)CN1C)C(=O)N(C)[C@H](C[C@@H](OC(C)=O)c1nc(C(=O)N[C@@H](Cc2ccccc2)C[C@H](C)C(=O)O)cs1)C(C)C,1.7 nM,4.2 nM,0.8 nM,,,,
CC[C@H](C)[C@H](NC(=O)[C@@H]1CC(C)(C)CCN1C)C(=O)N(C)[C@H](C[C@@H](OC(C)=O)c1nc(C(=O)N[C@@H](Cc2ccccc2)C[C@H](C)C(=O)O)cs1)C(C)C,50.6 nM,118 nM,88 nM,,,,
CC[C@H](C)[C@H](NC(=O)[C@H]1CCCN1C)C(=O)N(C)[C@H](C[C@@H](OC(C)=O)c1nc(C(=O)N[C@@H](Cc2ccccc2)C[C@H](C)C(=O)O)cs1)C(C)C,1 nM,3.3 nM,0.6 nM,,,,
CC[C@H](C)[C@H](NC(=O)[C@@H](C(C)C)N(C)C)C(=O)N(C)[C@H](C[C@@H](OC(C)=O)c1nc(C(=O)N[C@@H](Cc2ccccc2)C[C@H](C)C(=O)O)cs1)C(C)C,9.6 nM,10.7 nM,4.4 nM,,,,
CC[C@H](C)[C@H](NC(=O)[C@@H](c1ccccc1)N(C)C)C(=O)N(C)[C@H](C[C@@H](OC(C)=O)c1nc(C(=O)N[C@@H](Cc2ccccc2)C[C@H](C)C(=O)O)cs1)C(C)C,82.3 nM,111 nM,52.5 nM,,,,
CC[C@H](C)[C@H](NC(=O)[C@H]1CC(C)(C)CCN1C)C(=O)N(C)[C@H](C[C@@H](OC(C)=O)c1nc(C(=O)N[C@@H](Cc2ccccc2)C[C@H](C)C(=O)O)cs1)C(C)C,1.3 nM,3.9 nM,1.8 nM,,,,
CC[C@H](C)[C@H](NC(=O)[C@H]1COCCN1C)C(=O)N(C)[C@H](C[C@@H](OC(C)=O)c1nc(C(=O)N[C@@H](Cc2ccccc2)C[C@H](C)C(=O)O)cs1)C(C)C,808 nM,998 nM,408 nM,,,,
CC[C@H](C)[C@H](NC(=O)[C@@H](C)N(C)C)C(=O)N(C)[C@H](C[C@@H](OC(C)=O)c1nc(C(=O)N[C@@H](Cc2ccccc2)C[C@H](C)C(=O)O)cs1)C(C)C,4.5 nM,3.9 nM,2.5 nM,,,,
CC[C@H](C)[C@H](NC(=O)[C@H]1CCSCN1C)C(=O)N(C)[C@H](C[C@@H](OC(C)=O)c1nc(C(=O)N[C@@H](Cc2ccccc2)C[C@H](C)C(=O)O)cs1)C(C)C,136 nM,125 nM,64.2 nM,,,,
CC[C@H](C)[C@H](NC(=O)[C@H]1C[C@H](C)CCN1C)C(=O)N(C)[C@H](C[C@@H](OC(C)=O)c1nc(C(=O)N[C@@H](Cc2ccccc2)C[C@H](C)C(=O)O)cs1)C(C)C,0.9 nM,3.4 nM,0.5 nM,,,,
CC[C@H](C)[C@H](NC(=O)[C@H]1CCc2ccccc2N1C)C(=O)N(C)[C@H](C[C@@H](OC(C)=O)c1nc(C(=O)N[C@@H](Cc2ccccc2)C[C@H](C)C(=O)O)cs1)C(C)C,> 3330 nM,> 3330 nM,> 3330 nM,,,,
CC[C@H](C)[C@H](NC(=O)[C@@H](CC(C)C)N(C)C)C(=O)N(C)[C@H](C[C@@H](OC(C)=O)c1nc(C(=O)N[C@@H](Cc2ccccc2)C[C@H](C)C(=O)O)cs1)C(C)C,17 nM,19.1 nM,8.2 nM,,,,
CC[C@H](C)[C@H](NC(=O)[C@H]1CCCCN1)C(=O)N(C)[C@H](C[C@@H](OC(C)=O)c1nc(C(=O)N[C@@H](Cc2ccccc2)C[C@H](C)C(=O)OC)cs1)C(C)C,11.5 nM,9.39 nM,3.68 nM,,,,
CC[C@H](C)[C@H](NC(=O)[C@H]1CCCCN1CCN)C(=O)N(C)[C@H](C[C@@H](OC(C)=O)c1nc(C(=O)N[C@@H](Cc2ccccc2)C[C@H](C)C(=O)O)cs1)C(C)C,176 nM,243 nM,174 nM,,,,
CC[C@H](C)[C@H](NC(=O)[C@H]1CCCCN1C)C(=O)N(C)[C@H](C[C@@H](OC(C)=O)c1nc(C(=O)N[C@@H](Cc2ccccc2)C[C@H](C)C(N)=O)cs1)C(C)C,0.948 nM,1.06 nM,0.737 nM,,,,
CC[C@H](C)[C@H](NC(=O)[C@H]1CCCCN1C(C)=O)C(=O)N(C)[C@H](C[C@@H](OC(C)=O)c1nc(C(=O)N[C@@H](Cc2ccccc2)C[C@H](C)C(=O)O)cs1)C(C)C,> 3330 nM,> 3330 nM,798 nM,,,,
CC[C@H](C)[C@H](NC(=O)[C@@H](Cc1ccccc1)N(C)C)C(=O)N(C)[C@H](C[C@@H](OC(C)=O)c1nc(C(=O)N[C@@H](Cc2ccccc2)C[C@H](C)C(=O)O)cs1)C(C)C,134 nM,225 nM,103 nM,,,,
CC[C@H](C)[C@H](NC(=O)[C@H]1CCCCN1)C(=O)N(C)[C@H](C[C@@H](OC(C)=O)c1nc(C(=O)N[C@@H](Cc2ccccc2)C[C@H](C)C(=O)O)cs1)C(C)C,46.2 nM,19.6 nM,21.3 nM,,,,
CCCN(C)[C@@H](C(=O)N[C@H](C(=O)N(C)[C@H](C[C@@H](OC(C)=O)c1nc(C(=O)N[C@@H](Cc2ccccc2)C[C@H](C)C(=O)O)cs1)C(C)C)[C@@H](C)CC)C(C)C,> 3330 nM,> 3330 nM,> 3330 nM,,,,

# Reference: ChEMBL document CHEMBL3860102, “Structure-Cytotoxicity Relationships of Analogues of N14-Desacetoxytubulysin H” (J Med Chem, 2016)
